Experimental data published in patent US8952150B2, “Prostaglandin transporter inhibitors and uses thereof” (Albert Einstein College of Medicine of Yeshiva University, priority 2009, dated 2015).

Molecular target: rat PGT (Rattus norvegicus (Rat), UniProt Q00910)
Assay: [3H]PGE2 uptake inhibition in MDCK cells stably transfected with rat PGT (percent inhibition and IC50)
Type: cell-based
Conditions: for Inh (% of Ctl) 0.5 μM: 0.5 μM compound; for Inh (% of Ctl) 0.5 μM / Inh (% of Ctl) 5 μM / Inh (% of Ctl) 0.1 μM / Inh (% of Ctl) 1 μM / Inh (% of Ctl) 2.5 μM / Inh (% of Ctl) 10 μM: inhibition of [3H]PGE2 uptake; for Inh (% of Ctl) 5 μM: 5 μM compound; for Inh (% of Ctl) 0.1 μM: 0.1 μM compound; for Inh (% of Ctl) 1 μM: 1 μM compound; for Inh (% of Ctl) 2.5 μM: 2.5 μM compound; for Inh (% of Ctl) 10 μM: 10 μM compound; for IC50: [3H]PGE2 uptake, MDCK cells stably transfected with rat PGT
Method: MDCK cells stably transfected with rat PGT (Endo et al., 2002) were seeded at 15-20% confluence on 24-well plates. The day on which the cells were seeded was considered day 1. PGE2 uptake experiments were conducted on day 4. All of the PGE2 uptake experiments were conducted at room temperature. On day 4, cells were washed twice with Waymouth buffer (135 mM NaCl, 13 mM H-Hepes, 13 mM Na-Hepes, 2.5 mM CaCl2, 1.2 mM MgCl2, 0.8 mM MgSO4, 5 mM KCl, and 28 mM D-glucose). Then 200 μL of Waymouth buffer containing [^3H]PGE2 (purchased from Perkin Elmer) was added to each well. At the designed time, the uptake of [^3H]PGE2 was stopped by aspiration of uptake buffer; this was followed by immediate washing twice with 500 μL of chilled Waymouth buffer. Cells were then lysed with 100 μL lysis buffer containing 0.25% SDS and 0.05 N NaOH. 1.5 mL of scintillation solution was added to each well, and intracellular [^3H]PGE2 was counted by MicroBeta Counter.
For preliminary testing of the compounds, 20 μL of Waymouth buffer containing the compound was added to each well; this was immediately followed by the addition of 180 μL of Waymouth buffer containing [^3H]PGE2. In each well, the total volume of uptake medium was 200 μL. Organic compounds were first dissolved in EtOH and then diluted in Waymouth buffer. The percent inhibition of [^3H]PGE2 uptake by compounds was calculated as [(uptakevehicle−uptakeinhibitor)÷(uptakevehicle)]×100.
IC50 was calculated by fitting an equation of y=m1−m1*(m0/(m2+m0)).

Row | Inh (% of Ctl) 0.5 μM | Inh (% of Ctl) 5 μM | Inh (% of Ctl) 0.1 μM | Inh (% of Ctl) 1 μM | Inh (% of Ctl) 2.5 μM | Inh (% of Ctl) 10 μM | IC50 [µM] | SMILES
1 | 10.6 % of Ctl | 35.9 % of Ctl | – | – | – | – | – | CNC(=O)c1ccc(Nc2nc(NCCOCCOCCNC(=O)c3ccccc3)nc(Nc3ccc(O)cc3)n2)cc1 [compound 14]
2 | 2.6 % of Ctl | 35.2 % of Ctl | – | – | – | – | – | O=C(NCCOCCOCCNc1nc(Nc2ccc(O)cc2)nc(Nc2ccc(CO)cc2)n1)c1ccccc1 [compound 26]
3 | 9.6 % of Ctl | 14.4 % of Ctl | – | – | – | – | – | NC(=O)c1ccc(Nc2nc(NCCOCCOCCNC(=O)c3ccccc3)nc(Nc3ccc(O)cc3)n2)cc1 [compound 20]
4 | 64.8 % of Ctl | 93.1 % of Ctl | 68.4 % of Ctl | – | 68.8 % of Ctl | – | – | O=C(NCCOCCOCCNc1nc(Nc2ccc(O)cc2)nc(Nc2ccc(C(=O)NCc3ccccc3Cl)cc2)n1)c1ccccc1 [compound 106]
5 | 21.2 % of Ctl | 84.0 % of Ctl | – | – | – | – | 1.05 | O=C(NCCOCCOCCNc1nc(Nc2ccc(O)cc2)nc(Nc2ccc(C(=O)NCc3ccccn3)cc2)n1)c1ccccc1 [compound 70]
6 | 13.5 % of Ctl | 70.5 % of Ctl | – | – | 35.9 % of Ctl | – | – | CCCCCCCC(=O)c1ccc(Nc2nc(NCCOCCOCCNC(=O)c3ccccc3)nc(Nc3ccc(O)cc3)n2)cc1 [compound 76]
7 | – | – | – | 26.1 % of Ctl | – | 78.25 % of Ctl | – | O=C(NCCOCCOCCNc1nc(Nc2ccccc2)nc(Nc2ccc(O)cc2)n1)c1ccc(F)cc1 [compound 30]
8 | 55.6 % of Ctl | 85.1 % of Ctl | 49.5 % of Ctl | – | 59.8 % of Ctl | – | – | O=C(NCCOCCOCCNc1nc(Nc2ccc(O)cc2)nc(Nc2ccc(C(=O)NCc3ccc(Br)cc3)cc2)n1)c1ccccc1 [compound 109]
9 | 16.7 % of Ctl | 78.4 % of Ctl | – | – | – | – | – | O=C(NCCOCCOCCNc1nc(Nc2ccc(O)cc2)nc(Nc2ccc(C(=O)NCc3ccncc3)cc2)n1)c1ccccc1 [compound 71]
10 | 15.7 % of Ctl | 68.2 % of Ctl | – | – | – | – | – | O=C(NCCO)c1ccc(Nc2nc(NCCOCCOCCNC(=O)c3ccccc3)nc(Nc3ccc(O)cc3)n2)cc1 [compound 21]
11 | 45.1 % of Ctl | – | 8.9 % of Ctl | 65.6 % of Ctl | – | – | – | O=C(NCCOCCOCCNc1nc(Nc2ccc(O)cc2)nc(Nc2ccc(C(=O)NCc3ccc(F)c(F)c3)cc2)n1)c1ccccc1 [compound 129]
12 | 56.4 % of Ctl | 86.0 % of Ctl | 41.1 % of Ctl | – | 57.6 % of Ctl | – | – | O=C(NCCOCCOCCNc1nc(Nc2ccc(O)cc2)nc(Nc2ccc(C(=O)NCc3ccc(Cl)cc3Cl)cc2)n1)c1ccccc1 [compound 100]

Further lines, the molecule ahead of its results:

Row | SMILES | Inh (% of Ctl) 0.5 μM | Inh (% of Ctl) 5 μM | Inh (% of Ctl) 0.1 μM | Inh (% of Ctl) 1 μM | Inh (% of Ctl) 2.5 μM | Inh (% of Ctl) 10 μM | IC50 [µM]
13 | N[C@H](Cc1ccccc1)C(=O)NCCOCCNc1nc(Nc2ccc(O)cc2)nc(Nc2ccc(C(=O)NCc3ccccc3)cc2)n1 [compound 133] | 12.6 % of Ctl | – | 4.3 % of Ctl | 19.4 % of Ctl | – | – | –
14 | O=C(NCCOCCOCCNc1nc(Nc2ccc(O)cc2)nc(Nc2ccc(C(=O)NCc3cccc(C(F)(F)F)c3)cc2)n1)c1ccccc1 [compound 101] | 54.0 % of Ctl | 91.4 % of Ctl | 47.4 % of Ctl | – | 71.0 % of Ctl | – | –
15 | O=C(NCCOCCOCCNc1nc(Nc2ccccc2)nc(Nc2ccc(O)cc2)n1)c1ccccc1 [compound 4] | 7.0 % of Ctl | 67.6 % of Ctl | – | 32.4 % of Ctl | – | 81.5 % of Ctl | 4.85
16 | COc1ccc(C(=O)NCCOCCNc2nc(Nc3ccc(O)cc3)nc(Nc3ccc(C(=O)NCc4ccccc4)cc3)n2)cc1 [compound 137] | 64.9 % of Ctl | – | 42.0 % of Ctl | 75.6 % of Ctl | – | – | 0.0367
17 | O=C(NCc1ccc(F)cc1)c1ccc(Nc2nc(Nc3ccc(O)cc3)nc(Nc3ccc(C(=O)NCc4ccc(F)cc4)cc3)n2)cc1 [compound 148] | 12.9 % of Ctl | – | 8.4 % of Ctl | 20.7 % of Ctl | – | – | –
18 | CC(=O)NCCOCCOCCNc1nc(Nc2ccccc2)nc(Nc2ccc(O)cc2)n1 [compound 41] | – | – | – | 0.3 % of Ctl | – | 6.6 % of Ctl | –
19 | O=C(NCCOCCOCCNc1nc(Nc2ccccc2)nc(Nc2ccc3cn[nH]c3c2)n1)c1ccccc1 [compound 75] | – | 10.1 % of Ctl | – | 8.4 % of Ctl | – | 12.5 % of Ctl | –
20 | O=C(O)c1ccc(Nc2nc(NCCOCCOCCNC(=O)c3ccccc3)nc(Nc3ccccc3)n2)cc1 [compound 58] | – | 41.0 % of Ctl | – | 16.25 % of Ctl | – | 52.5 % of Ctl | –
21 | O=C(NCCOCCOCCNc1nc(Nc2ccccc2)nc(Nc2ccc(O)cc2)n1)c1ccc(-c2ccccc2)cc1 [compound 40] | – | – | – | 16.3 % of Ctl | – | 46.9 % of Ctl | –
22 | O=C(NCc1ccccc1)c1ccc(Nc2nc(NCCOCCNCc3ccccc3)nc(Nc3ccc(O)cc3)n2)cc1 [compound 141] | 22.0 % of Ctl | – | 12.7 % of Ctl | 43.5 % of Ctl | – | – | –
23 | COC(=O)Cc1ccc(Nc2nc(NCCOCCOCCNC(=O)c3ccccc3)nc(Nc3ccccc3)n2)cc1 [compound 60] | – | – | – | 7.2 % of Ctl | – | 34.5 % of Ctl | –
24 | COc1ccc(Nc2nc(NCCOCCOCCNC(=O)c3ccccc3)nc(Nc3ccccc3)n2)cc1 [compound 1] | 9.6 % of Ctl | 8.5 % of Ctl | – | – | – | – | –
25 | O=C(NCCOCCOCCNc1nc(Cl)nc(Nc2ccc(OCc3ccccc3)cc2)n1)c1ccccc1 [compound 3] | 0.4 % of Ctl | 1.7 % of Ctl | – | – | – | – | –
26 | CN(Cc1ccccc1)C(=O)c1ccc(Nc2nc(NCCOCCOCCNC(=O)c3ccccc3)nc(Nc3ccc(O)cc3)n2)cc1 [compound 68] | 15.0 % of Ctl | 70.8 % of Ctl | – | – | – | – | –
27 | COC(=O)Cc1ccc(Nc2nc(NCCOCCOCCNC(=O)c3ccccc3)nc(Nc3ccc(C(=O)NCc4ccccc4)cc3)n2)cc1 [compound 122] | 38.1 % of Ctl | – | 5.8 % of Ctl | – | – | – | –
28 | O=C(NCCOCCNc1nc(Nc2ccc(O)cc2)nc(Nc2ccc(C(=O)NCc3ccc(F)cc3)cc2)n1)c1ccccc1 [compound 147] | 70.2 % of Ctl | – | 44.5 % of Ctl | 79.5 % of Ctl | – | – | 0.0317
29 | CCCCCCNC(=O)c1ccc(Nc2nc(NCCOCCOCCNC(=O)c3ccccc3)nc(Nc3ccc4[nH]ncc4c3)n2)cc1 [compound 65] | 18.4 % of Ctl | 84.0 % of Ctl | – | 66.4 % of Ctl | – | 90.0 % of Ctl | 1.38
30 | O=C(NCCOCCOCCNc1nc(Nc2ccccc2)nc(Nc2ccc(-c3nnn[nH]3)cc2)n1)c1ccccc1 [compound 54] | – | – | – | 33.7 % of Ctl | – | 52.2 % of Ctl | –
31 | O=C(NCCOCCOCCNc1nc(Nc2ccccc2)nc(Nc2ccc(O)cc2)n1)c1cc(F)cc(F)c1 [compound 35] | – | – | – | 20.4 % of Ctl | – | 75.6 % of Ctl | –
32 | O=C(NCCOCCOCCNc1nc(Nc2ccc(O)cc2)nc(Nc2ccc(C(=O)NCc3ccc4[nH]ccc4c3)cc2)n1)c1ccccc1 [compound 94] | 36.0 % of Ctl | 76.1 % of Ctl | – | – | 66.7 % of Ctl | – | –
33 | O=C(NCCOCCOCCNc1nc(O)nc(Nc2ccc(O)cc2)n1)c1ccccc1 [compound 12] | 2.8 % of Ctl | 4.7 % of Ctl | – | – | – | – | –
34 | O=C(NCCOCCOCCNc1nc(Nc2ccccc2)nc(Nc2ccc(O)cc2)n1)c1cccc(Br)c1 [compound 36] | – | – | – | 30.3 % of Ctl | – | 81.1 % of Ctl | –
35 | O=C(NCCCCCNc1nc(Nc2ccccc2)nc(Nc2ccc(O)cc2)n1)c1ccccc1 [compound 85] | – | 12.2 % of Ctl | – | 7.6 % of Ctl | – | 49.6 % of Ctl | –
36 | COC(=O)[C@@H](NC(=O)c1ccc(Nc2nc(NCCOCCOCCNC(=O)c3ccccc3)nc(Nc3ccc(O)cc3)n2)cc1)c1ccccc1 [compound 74] | 51.6 % of Ctl | 82.0 % of Ctl | 45.0 % of Ctl | – | 56.9 % of Ctl | – | –
37 | O=C(CCCCCCNc1nc(Nc2ccccc2)nc(Nc2ccc(O)cc2)n1)NCc1ccccc1 [compound 97] | – | 19.4 % of Ctl | – | 13.1 % of Ctl | – | 30.8 % of Ctl | –
